Results from patent US20060058358A1, “Pharmaceutical compositions for the treatment of hyper-proliferative disorders” (priority 2004, published 2006).

What was measured:
[1] = Solubility of the active in the dissolution medium; format: physicochemical; details: acetate buffer pH 4.5 USP + 0.1% sodium lauryl sulfate, 37°C
Description: Drug dissolution of the new solid dispersion formulations of Example 6 and 7 was studied using the paddle apparatus “Apparatus 2” of the USP 28-NF 23 (The United States Pharmacopoeia USP 28 2005) at a temperature of 37±0.5° C. and a paddle speed of 75 rpm. 900 mL of acetate buffer pH 4.5 USP with the addition of 0.1% (m/V) sodium lauryl sulfate as surfactant was used as dissolution medium. An amount of solid dispersion equivalent to 50 mg of the compound of Formula I as base was inserted in each vessel. During the dissolution test samples were drawn through a filter and the dissolved amount of drug substances was determined by UV spectrometry. The determined amount of active was calculated as % (m/m) of total dose (50mg).
Due to the low solubility of the active only about […] of the 50 mg dose are dissolved. The solid dispersions, however, show fast and almost complete dissolution of the active. […] The solid new pharmaceutical compositions of Example 6 and 7, which contain the active in substantially amorphous form, show clear supersaturation compared to the physical mixture of the active and PVP, and no significant recrystallisation is observed for at least 1 hour. […]

[2] = Comparative oral bioavailability in the rat (Example 19); format: in vivo, male Wistar rats; details: male, Wistar, plasma, 5 mg/kg, oral gavage; for bioavailability: relative to iv bolus 2 mg/kg
Description: A single dose of the compounds of Examples 1, 2, 3, 4, and 5 was administered to each of three fasted male Wistar rats (220-250 g; 6-8 weeks old) orally. Compounds of Examples 1-4 were administered by oral gavage in the formulation described in Table 1. The solid dispersion of Example 5 (1.25 mg drug substance in 5 mg PVP-25) was administered in size 9 capsules. One capsule was administered per rat. Approximately 0.4 mL of whole blood was collected via an indwelling jugular catheter at: 0.25, 0.5, 1, 2, 4, 7, 24, and 48 h post-dose. The blood samples were centrifuged (approx. 5 min.) in order to obtain plasma which was then transferred to the appropriately labeled vials and stored frozen (−20° C.) until analysis for parent drug.
Plasma samples were analyzed via LC/MS/MS for parent drug concentrations and pharmacokinetic parameters were calculated using Watson LIMS.
The dose of 5 mg/kg of the pharmaceutical composition of Example 5 means 5 mg of drug substance (compound of Example 1) per kg of body weight. The relative bioavailabilities in the rat are calculated from the data of an intravenous bolus dose of 2 mg/kg in the same strain of rats, using a solution of the active in a Cremophor RH40:ethanol:water (12.5:12.5:75) vehicle. The plasma exposure in the exposure arm of the suspension in 0.5% tylose solution (9.9% F) reflects a crystalline, micronized drug substance with the following characteristics: 208° C. (onset), 211° C. (peak), ΔH=91.4 J/g.

[3] = tested on: raf; assay: Inhibition of raf kinase; format: biochemical; details: statement in words, no data
[4] = biological target: VEGFR-2 (Homo sapiens, UniProt P35968); assay: Inhibition of VEGFR-2 kinase; format: biochemical; details: statement in words, no data
[5] = tested on: p38; assay: Inhibition of p38 kinase; format: biochemical; details: statement in words, no data
[6] = tested on: PDGFR; assay: Inhibition of PDGFR kinase; format: biochemical; details: statement in words, no data
[7] = po, 0.5% NaCMC and 0.5% Tween 80 in water
[8] = po, vehicle 0.5% NaCMC and 0.5% Tween 80 in water

Chain of VEGFR-2 (P35968 20-1356, species assumed): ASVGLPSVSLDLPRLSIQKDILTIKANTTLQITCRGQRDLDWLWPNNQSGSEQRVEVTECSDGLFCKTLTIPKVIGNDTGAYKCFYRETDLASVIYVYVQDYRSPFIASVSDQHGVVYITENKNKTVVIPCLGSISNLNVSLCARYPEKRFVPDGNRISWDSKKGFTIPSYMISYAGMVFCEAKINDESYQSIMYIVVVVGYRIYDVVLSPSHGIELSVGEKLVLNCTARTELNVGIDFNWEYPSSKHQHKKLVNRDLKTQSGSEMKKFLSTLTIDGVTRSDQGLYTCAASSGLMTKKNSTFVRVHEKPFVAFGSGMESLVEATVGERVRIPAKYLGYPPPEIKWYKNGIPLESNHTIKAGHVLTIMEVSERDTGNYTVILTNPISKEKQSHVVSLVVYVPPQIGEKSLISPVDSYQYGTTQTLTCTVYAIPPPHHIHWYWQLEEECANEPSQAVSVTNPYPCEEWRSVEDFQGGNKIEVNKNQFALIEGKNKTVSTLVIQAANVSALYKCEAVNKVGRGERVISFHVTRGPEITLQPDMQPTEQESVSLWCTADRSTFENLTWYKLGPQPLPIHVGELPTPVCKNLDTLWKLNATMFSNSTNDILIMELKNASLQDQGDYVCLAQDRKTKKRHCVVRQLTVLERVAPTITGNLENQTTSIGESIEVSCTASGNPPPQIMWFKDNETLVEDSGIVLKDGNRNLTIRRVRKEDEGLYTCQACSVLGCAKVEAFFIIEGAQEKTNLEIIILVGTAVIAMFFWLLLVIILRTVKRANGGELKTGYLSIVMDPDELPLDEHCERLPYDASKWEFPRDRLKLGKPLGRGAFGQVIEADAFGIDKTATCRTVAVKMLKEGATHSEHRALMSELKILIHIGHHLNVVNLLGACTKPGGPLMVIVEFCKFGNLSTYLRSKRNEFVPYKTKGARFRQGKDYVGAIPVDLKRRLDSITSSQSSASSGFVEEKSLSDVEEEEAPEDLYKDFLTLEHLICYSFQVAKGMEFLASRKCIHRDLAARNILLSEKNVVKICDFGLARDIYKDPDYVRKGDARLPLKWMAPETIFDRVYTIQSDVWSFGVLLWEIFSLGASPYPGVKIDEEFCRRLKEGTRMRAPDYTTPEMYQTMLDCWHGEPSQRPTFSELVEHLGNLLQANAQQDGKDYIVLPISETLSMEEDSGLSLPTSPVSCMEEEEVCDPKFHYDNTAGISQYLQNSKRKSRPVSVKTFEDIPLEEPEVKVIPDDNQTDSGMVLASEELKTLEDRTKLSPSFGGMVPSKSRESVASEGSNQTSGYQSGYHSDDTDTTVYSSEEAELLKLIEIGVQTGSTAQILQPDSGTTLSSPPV

Structure (SMILES)	solubility of the active in this medium [1] [mg/900 mL]	bioavailability ([2]; oral, 0.5% tylose in water) [%]	bioavailability [2, 7] [%]	bioavailability ([2]; po, 0.5% tylose in water) [%]	AUC(0-inf) [2, 8] [µg·h/mL]	AUC(0-inf) ([2]; po, vehicle 0.5% tylose in water) [µg·h/mL]	inhibition of raf kinase [3]	inhibition of VEGFR-2 kinase [4]	inhibition of p38 kinase [5]	inhibition of PDGFR kinase [6]
CNC(=O)c1cc(Oc2ccc(NC(=O)Nc3ccc(Cl)c(C(F)(F)F)c3)c(F)c2)ccn1 [Example 1, 4{4-[3-(4-chloro-3-trifluoromethylphenyl)-ureido]-3-fluorophenoxy}-pyridine-2-carboxylic acid methylamide]	2.3	9.9	13	10	21.8	17	potent inhibitor	potent inhibitor	potent inhibitor	potent inhibitor
CNC(=O)c1cc(Oc2ccc(NC(=O)Nc3ccc(Cl)c(C(F)(F)F)c3)c(F)c2)ccn1.Cl [Example 2, 4{4-[3-(4-chloro-3-trifluoromethylphenyl)-ureido]-3-fluorophenoxy}-pyridine-2-carboxylic acid methylamide hydrochloride]			7		12.1					
CNC(=O)c1cc(Oc2ccc(NC(=O)Nc3ccc(Cl)c(C(F)(F)F)c3)c(F)c2)ccn1.CS(=O)(=O)O [Example 3, 4{4-[3-(4-chloro-3-trifluoromethylphenyl)-ureido]-3-fluorophenoxy}-pyridine-2-carboxylic acid methylamide mesylate]			10		16.8					
CNC(=O)c1cc(Oc2ccc(NC(=O)Nc3ccc(Cl)c(C(F)(F)F)c3)c(F)c2)ccn1.O=S(=O)(O)c1ccccc1 [Example 4, 4{4-[3-(4-chloro-3-trifluoromethylphenyl)-ureido]-3-fluorophenoxy}-pyridine-2-carboxylic acid methylamide phenylsulfonate]			10		15.8					
